Data taken from paper PMC11985408, “Tsrp1 Is a Novel Cyclic Diguanosine Monophosphate Effector that Plays a Role in the Organic-Solvent Tolerance of Rhodococcus ruber” (Journal of Microbiology and Biotechnology, 2025).

Biological target: Tsrp1
Assay: localized surface plasmon resonance, Tsrp1 immobilised on NTA chip, one-to-one model
Type: binding, Rhodococcus ruber
Settings: HEPES-buffered saline pH 7.4; c-di-GMP 62.5-500 μM; unit printed as mM in b36 but μM in abstract; read-out: dissociation constant

Kd: 0.064 ± 0.00684 mM
Structure (SMILES): Nc1nc2c(ncn2[C@@H]2O[C@@H]3COP(=O)(O)O[C@H]4[C@@H](O)[C@H](n5cnc6c(=O)[nH]c(N)nc65)O[C@@H]4COP(=O)(O)O[C@H]3[C@H]2O)c(=O)[nH]1 [c-di-GMP]
